For one experiment, the target named is human Factor XIa (Homo sapiens (Human), UniProt P03951). Description: Factor XIa Assay. The following applies: read-out: FXIa Ki. It counts as biochemical. In outline: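 Ki derived from the dependence of Vo/Vi on inhibitor concentration under a competitive-inhibition model, after pre-equilibration of enzyme and inhibitor. Reaction: 40 pM human FXIa, 100 μM Z-Gly-Pro-Arg-AFC, HEPES 50 mM pH 7.4 with NaCl, CaCl2 and PEG 8000; run at room temperature or 37° C.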

The target in the next experiment is Human plasma kallikrein (Homo sapiens (Human), UniProt P03952). Kind of experiment: Kallikrein Assay. In kind it is biochemical. As to conditions: purified Human plasma kallikrein 0.5 nM, Acetyl-K-P-R-AFC, pH 7.4; Ki from IC50 by Cheng Prusoff. How it is done:
The effectiveness of a compound of the present invention as an inhibitor of Kallikrein can be determined using a relevant purified serine protease, and an appropriate synthetic substrate. The rate of hydrolysis of the chromogenic or fluorogenic substrate by the relevant serine protease was measured both in the absence and presence of compounds of the present invention. Assays were conducted at room temperature or at 37° C. […] A decrease in the rate of fluorescence change in the presence of inhibitor is indicative of enzyme inhibition. Such methods are known to one skilled in the art. The results of this assay are expressed as the inhibitory constant, Ki.
Kallikrein determinations were made in 50 mM HEPES buffer at pH 7.4 containing 150 mM NaCl, 5 mM CaCl2, and 0.1% PEG 8000 (polyethylene glycol; Fisher Scientific). Determinations were made using purified Human plasma kallikrein at a final concentration of 0.5 nM (Enzyme Research Laboratories) and the synthetic substrate, Acetyl-K-P-R-AFC (Sigma #C6608) at a concentration of […].
Times required to achieve equilibration between enzyme and inhibitor were determined in control experiments. The reactions were performed under linear progress curve conditions and fluorescence increase measured at 405 Ex/510 Em nm. […] IC50 was determined by inflection point from a four parameter logistic curve fit. Ki was calculated using the Cheng Prusoff equation, Ki=IC50/(1+([S]/Km)).

The mark [1] stands for this setting: purified human Factor XIa 40 pM, Z-Gly-Pro-Arg-AFC 100 μM, pH 7.4.

This passage reports Ki results from US10093683B2, “Factor XIa inhibitors” (Merck Sharp & Dohme Corp., priority 2014, dated 2018).

Read-outs that look alike come from different tables or passages of the source. A value given as a limit tells only on which side of the number the result lay.

Sequence of human Factor XIa (P03951 388-625): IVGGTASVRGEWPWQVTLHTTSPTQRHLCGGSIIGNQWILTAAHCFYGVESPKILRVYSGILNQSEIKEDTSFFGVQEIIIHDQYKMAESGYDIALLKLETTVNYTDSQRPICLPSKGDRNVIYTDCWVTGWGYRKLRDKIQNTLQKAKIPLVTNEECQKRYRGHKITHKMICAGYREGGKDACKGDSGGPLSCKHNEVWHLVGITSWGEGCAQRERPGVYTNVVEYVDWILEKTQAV
Sequence of human Factor XIa (P03951 19-387 partner): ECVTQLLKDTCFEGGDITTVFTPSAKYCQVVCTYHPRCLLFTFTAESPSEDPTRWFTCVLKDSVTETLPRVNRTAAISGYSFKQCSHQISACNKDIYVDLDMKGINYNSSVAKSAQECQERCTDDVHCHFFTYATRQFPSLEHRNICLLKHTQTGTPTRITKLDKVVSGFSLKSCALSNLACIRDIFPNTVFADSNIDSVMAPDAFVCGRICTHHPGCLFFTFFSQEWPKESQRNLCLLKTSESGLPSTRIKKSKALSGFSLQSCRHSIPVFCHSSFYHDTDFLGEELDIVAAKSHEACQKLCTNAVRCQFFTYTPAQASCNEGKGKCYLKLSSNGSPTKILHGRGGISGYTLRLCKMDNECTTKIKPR
Sequence of Human plasma kallikrein (P03952 391-638): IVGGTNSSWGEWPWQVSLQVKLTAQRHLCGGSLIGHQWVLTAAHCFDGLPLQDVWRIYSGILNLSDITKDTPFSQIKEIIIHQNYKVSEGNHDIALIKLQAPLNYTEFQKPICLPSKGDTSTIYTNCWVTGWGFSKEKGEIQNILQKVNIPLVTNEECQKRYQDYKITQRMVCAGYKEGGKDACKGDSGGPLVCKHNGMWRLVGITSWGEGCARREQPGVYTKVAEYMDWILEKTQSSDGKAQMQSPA
Sequence of Human plasma kallikrein (P03952 20-390 partner): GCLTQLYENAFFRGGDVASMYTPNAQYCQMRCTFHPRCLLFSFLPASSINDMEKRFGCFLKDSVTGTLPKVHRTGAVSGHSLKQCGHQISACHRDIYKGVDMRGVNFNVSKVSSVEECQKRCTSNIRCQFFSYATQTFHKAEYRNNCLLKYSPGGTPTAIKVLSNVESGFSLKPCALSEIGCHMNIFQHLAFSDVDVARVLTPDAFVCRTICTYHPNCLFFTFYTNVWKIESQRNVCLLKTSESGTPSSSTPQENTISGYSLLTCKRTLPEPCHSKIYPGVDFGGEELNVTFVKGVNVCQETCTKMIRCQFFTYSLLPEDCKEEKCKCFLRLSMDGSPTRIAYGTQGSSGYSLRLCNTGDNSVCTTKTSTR

`COC(=O)Nc1ccc(C(=O)N[C@@H](Cc2ccncc2)C(=O)N2CCC[C@@]3(C2)OC(=O)Nc2ccc(Cl)c(F)c23)cc1` [Example 62, methyl (4-(((S)-1-((R)-6-chloro-5-fluoro-2-oxo-1,2-dihydrospiro[benzo[d][1,3]oxazine-4,3′-piperidin]-1′-yl)-1-oxo-3-(pyridin-4-yl)propan-2-yl)carbamoyl)phenyl)carbamate]: the Ki on human Factor XIa (setting [1]) was found to be 0.88 nM; on Human plasma kallikrein, 0.54 nM.
On to `COC(=O)Nc1ccc(C(=O)N[C@@H](Cc2ccc(-c3cn[nH]c3)cc2)C(=O)N2CC[C@@]3(C2)OC(=O)Nc2ccc(Cl)cc23)cc1` [Example 78, methyl (4-(((S)-3-(4-(1H-pyrazol-4-yl)phenyl)-1-((R)-6-chloro-2-oxo-1,2-dihydrospiro[benzo[d][1,3]oxazine-4,3′-pyrrolidin]-1′-yl)-1-oxopropan-2-yl)carbamoyl)phenyl)carbamate], for which the inhibition constant (Ki) came to 2.37 nM on human Factor XIa (setting [1]) and 24.5 nM on Human plasma kallikrein.
On to `COC(=O)Nc1ccc(C(=O)N[C@@H](Cc2ccc(-c3cnn(C)c3)cc2)C(=O)N2CC[C@@]3(C2)OC(=O)Nc2ccc(Cl)cc23)cc1` [Example 83, methyl (4-(((S)-1-((R)-6-chloro-2-oxo-1,2-dihydrospiro[benzo[d][1,3]oxazine-4,3′-pyrrolidin]-1′-yl)-3-(4-(1-methyl-1H-pyrazol-4-yl)phenyl)-1-oxopropan-2-yl)carbamoyl)phenyl)carbamate], for which the inhibitory constant (Ki) at human Factor XIa (setting [1]) turned out to be 2.65 nM; on Human plasma kallikrein, 31.1 nM.
Turning to `COC(=O)Nc1ccc(C(=O)N[C@@H](CC2CCCCC2)C(=O)N2CCC[C@@]3(C2)OC(=O)Nc2ccc(Cl)cc23)cc1` [Example 72, methyl (4-(((S)-1-((R)-6-chloro-2-oxo-1,2-dihydrospiro[benzo[d][1,3]oxazine-4,3′-piperidin]-1′-yl)-3-cyclohexyl-1-oxopropan-2-yl)carbamoyl)phenyl)carbamate], the Ki stood at 3.58 nM on human Factor XIa (setting [1]) and 17.7 nM on Human plasma kallikrein.
On to `CC(C)OC(=O)Nc1ccc(C(=O)N[C@@H](Cc2ccccc2)C(=O)N2CCC[C@@]3(C2)OC(=O)Nc2ccc(Cl)c(F)c23)cc1` [Example 231, isopropyl (4-(((S)-1-((R)-6-chloro-5-fluoro-2-oxo-1,2-dihydrospiro[benzo[d][1,3]oxazine-4,3′-piperidin]-1′-yl)-1-oxo-3-phenylpropan-2-yl)carbamoyl)phenyl)carbamate], for which the inhibition constant (Ki) on human Factor XIa is 35.1 nM; at Human plasma kallikrein, 4.74 nM.
For `Nc1n[nH]c2cc(C(=O)N[C@@H](Cc3ccccc3)C(=O)N3CCC[C@@]4(C3)OC(=O)Nc3ccc(Cl)cc34)ccc12` [Example 197] the same measures were 0.62 nM and 1.3 nM.
Consider `COC(=O)Nc1ccc(C(=O)N[C@@H](CC(=O)NCc2ccnn2C)C(=O)N2CCC[C@@]3(C2)OC(=O)Nc2ccc(Cl)cc23)cc1` [Example 98, methyl (4-(((S)-1-((R)-6-chloro-2-oxo-1,2-dihydrospiro[benzo[d][1,3]oxazine-4,3′-piperidin]-1′-yl)-4-(((1-methyl-1H-pyrazol-5-yl)methyl)amino)-1,4-dioxobutan-2-yl)carbamoyl)phenyl)carbamate], for which the inhibition constant (Ki) at human Factor XIa (setting [1]) turned out to be 38.3 nM; on Human plasma kallikrein it was 25.4 nM.
As for `O=C1Nc2ccc(Cl)cc2[C@@]2(CCCN(C(=O)[C@H](Cc3ccccc3)NC(=O)c3ccc4[nH]c(=O)cc(O)c4c3)C2)O1` [Example 199], the inhibition constant Ki on human Factor XIa and on Human plasma kallikrein was 0.6 nM throughout.
As to `COC(=O)Nc1ccc(C(=O)N[C@@H](CC2CC2)C(=O)N2CCC[C@@]3(C2)OC(=O)Nc2ccc(Cl)c(F)c23)cc1` [Example 63, methyl (4-(((S)-1-((R)-6-chloro-5-fluoro-2-oxo-1,2-dihydrospiro[benzo[d][1,3]oxazine-4,3′-piperidin]-1′-yl)-3-cyclopropyl-1-oxopropan-2-yl)carbamoyl)phenyl)carbamate], the values for the Ki on human Factor XIa (setting [1]) and at Human plasma kallikrein were 5.64 nM and 1.73 nM, respectively.
As for `O=C1Nc2ccc(Cl)c(F)c2[C@@]2(CCCN(C(=O)[C@H](Cc3ccccc3)NC(=O)c3ccc4[nH]c(=O)ccc4c3)C2)O1` [Example 257], the inhibitory constant (Ki) was 0.78 nM at human Factor XIa and 0.57 nM on Human plasma kallikrein.
On to `Nc1n[nH]c2cc(C(=O)N[C@@H](Cc3ccccc3)C(=O)N3CC[C@@]4(C3)OC(=O)Nc3ccc(Cl)c(F)c34)ccc12` [Example 195], for which the inhibition constant (Ki) at human Factor XIa is 1 nM; on Human plasma kallikrein, 1.9 nM.
Take `COC(=O)Nc1ccc(C(=O)N[C@@H](CC(F)F)C(=O)N2CCC[C@@]3(C2)OC(=O)Nc2ccc(Cl)c(F)c23)cc1` [Example 104, methyl (4-(((S)-1-((R)-6-chloro-5-fluoro-2-oxo-1,2-dihydrospiro[benzo[d][1,3]oxazine-4,3′-piperidin]-1′-yl)-4,4-difluoro-1-oxobutan-2-yl)carbamoyl)phenyl)carbamate]: the Ki came out at 15 nM on human Factor XIa (setting [1]) and 5.28 nM at Human plasma kallikrein.
`COC(=O)Nc1ccc(C(=O)N[C@@H](Cc2ccncc2F)C(=O)N2CCC[C@@]3(C2)OC(=O)Nc2ccc(Cl)c(F)c23)cc1` [Example 76, methyl (4-(((S)-1-((R)-6-chloro-5-fluoro-2-oxo-1,2-dihydrospiro[benzo[d][1,3]oxazine-4,3′-piperidin]-1′-yl)-3-(3-fluoropyridin-4-yl)-1-oxopropan-2-yl)carbamoyl)phenyl)carbamate]: the inhibitory constant (Ki) turned out to be 1.39 nM on human Factor XIa (setting [1]) and 1.2 nM on Human plasma kallikrein.
On to `COCCOC(=O)Nc1ccc(C(=O)N[C@@H](Cc2ccccc2)C(=O)N2CCC3(C2)OC(=O)Nc2ccc(Cl)cc23)cc1` (stereo partly drawn) [Example 164, 2-methoxyethyl (4-(((2S)-1-(6-chloro-2-oxo-1,2-dihydrospiro[benzo[d][1,3]oxazine-4,3′-pyrrolidin]-1′-yl)-1-oxo-3-phenylpropan-2-yl)carbamoyl)phenyl)carbamate], for which the inhibition constant (Ki) came out at 9.4 nM on human Factor XIa and 36 nM at Human plasma kallikrein.
On the same counts, the results for `Cc1[nH]c2ccc(C(=O)N[C@@H](Cc3ccccc3)C(=O)N3CCC[C@@]4(C3)OC(=O)Nc3ccc(Cl)cc34)cc2c1C(=O)O` [Example 249] are 2.02 nM and < 1.36 nM.
`O=C1Nc2ccc(Cl)c(F)c2[C@@]2(CCCN(C(=O)C(Cc3ccccc3)c3ncc(-c4ccc(C(=O)O)s4)[nH]3)C2)O1` (stereo partly drawn) [Example 123, 5-(2-(1-((R)-6-chloro-5-fluoro-2-oxo-1,2-dihydrospiro[benzo[d][1,3]oxazine-4,3′-piperidin]-1′-yl)-1-oxo-3-phenylpropan-2-yl)-1H-imidazol-5-yl)thiophene-2-carboxylic acid]: the Ki stood at 15.1 nM at human Factor XIa (setting [1]) and 4.65 nM at Human plasma kallikrein.
Consider `O=C1CCc2cc(C(=O)N[C@@H](CC3CC3)C(=O)N3CCC[C@@]4(C3)OC(=O)Nc3ccc(Cl)c(F)c34)ccc2N1` [Example 251], for which the Ki at human Factor XIa was 5.72 nM; at Human plasma kallikrein, < 1.36 nM.
Turning to `COC(=O)Nc1ccc(C(=O)N[C@@H](Cc2ccccc2)C(=O)N2CCC[C@@]3(C2)OC(=O)Nc2ccc(Cl)cc23)cc1` [Example 3b, methyl (4-(((S)-1-((R)-6-chloro-2-oxo-1,2-dihydrospiro[benzo[d][1,3]oxazine-4,3′-piperidin]-1′-yl)-1-oxo-3-phenylpropan-2-yl)carbamoyl)phenyl)carbamate], the Ki is 1.5 nM on human Factor XIa (setting [1]) and 1.55 nM at Human plasma kallikrein.
For `Nc1nc2ccc(C(=O)N[C@@H](Cc3ccccc3)C(=O)N3CCC4(C3)OC(=O)Nc3ccc(Cl)cc34)cc2s1` (some centres unmarked) [Example 181], the inhibition constant Ki was determined as 18.7 nM at human Factor XIa and 50.7 nM at Human plasma kallikrein.
In the case of `COC(=O)Nc1ccc(C(=O)N[C@@H](Cc2ccccc2)C(=O)N2CC[C@@]3(C2)OC(=O)Nc2ccc(Cl)c(F)c23)cc1` [Example 7, methyl (4-(((S)-1-((R)-6-chloro-5-fluoro-2-oxo-1,2-dihydrospiro[benzo[d][1,3]oxazine-4,3′-pyrrolidin]-1′-yl)-1-oxo-3-phenylpropan-2-yl)carbamoyl)phenyl)carbamate], the inhibitory constant (Ki) was 4.44 nM on human Factor XIa (setting [1]) and 3.51 nM on Human plasma kallikrein.
On the same counts, the results for `COC(=O)Nc1ccc(C(=O)N[C@@H](Cc2ccccc2)C(=O)N2CCCC3(C2)OC(=O)Nc2ccc(Cl)c(F)c23)cc1` (stereo partly drawn) [Example 13, methyl (4-(((2S)-1-(6-chloro-5-fluoro-2-oxo-1,2-dihydrospiro[benzo[d][1,3]oxazine-4,3′-piperidin]-1′-yl)-1-oxo-3-phenylpropan-2-yl)carbamoyl)phenyl)carbamate] are 1.8 nM and 1.4 nM.
For `O=C1Nc2ccc(Cl)c(F)c2[C@@]2(CCCN(C(=O)[C@H](CC3CC3)NC(=O)c3ccc4[nH]nc(O)c4c3)C2)O1` [Example 214], the Ki came to 0.7 nM on human Factor XIa and 1.4 nM on Human plasma kallikrein.
